Measurements reported in patent US8962001B2, “Nuclease inhibitors and methods for their use” (Wisconsin Alumni Research Foundation, priority 2004, dated 2015).

How the values were obtained:
[1] = target: T1, ribonuclease A (Bos taurus, UniProt P61823); assay: Inhibition of RNase A catalysis, fluorescence assay with 6-FAM~dArUdAdA~6-TAMRA; format: biochemical; settings: solutions of low salt concentration
T1 construct: made in house
T1 sequence (P61823 27-150): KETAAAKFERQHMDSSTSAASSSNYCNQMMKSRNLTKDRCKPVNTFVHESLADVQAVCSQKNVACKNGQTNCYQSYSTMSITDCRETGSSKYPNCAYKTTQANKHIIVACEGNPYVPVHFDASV
Procedure: Inhibition of RNase A Catalysis—Inhibition of ribonucleolytic activity was measured by using either poly(C) or a fluorogenic substrate. The total cytidyl concentration of poly(C) was quantitated using ε=6,200 M^−1 cm^−1 at 268 nm (Yakovlev et al., 1992). The cleavage of poly(C) was monitored by the decrease in ultraviolet hypochromicity. The Δε value for this reaction calculated from the difference in molar absorptivity of the polymeric substrate and the mononucleotide cyclic phosphate product was 2,380 M^−1 cm^−1 at 250 nm (delCardayre and Raines, 1994). Assays were performed at 25° C. in 50 mM imidazole-HCl buffer, pH 6.0, containing NaCl (0.10 M), poly(C) (10 μM-1.5 mM), OVS (0-1.43 μM), and enzyme (1.0 nM).
Molar values of OVS were calculated by using the number average molecular mass (Mn) of 2,000 g/mol (value provided by the manufacturer and said to be measured by GPC, Polysciences.) It is possible that an oligomer of this size could bind two enzymes. Thus, the actual Ki values could be 2-fold higher. Kinetic parameters were determined from initial velocity data with the program DELTA-GRAPH 4.0 (DeltaPoint, Monterey, Calif.). For the fluorescence assay, the inhibition of ribonucleolytic activity was assessed at 25° C. in 2.0 ml of 50 mM imidazole-HCl buffer, pH 6.0, containing NaCl (0-0.25 M), 6-FAM˜dArUdAdA˜6-TAMRA (60 nM), and RNase A ([…]) as described previously (Kelemen et al., 1999; Park et al., 2001). Fluorescence (F) was measured using 493 and 515 nm as the excitation and emission wavelengths, respectively. The value of ΔF/Δt was measured for 3 min after the addition of RNase A. An aliquot of inhibitor (I) dissolved in the dissolved in the assay buffer was added next, and ΔF/Δt was measured in the presence of the inhibitor for 3 min. The concentration of inhibitor in the assay was doubled repeatedly in 3-min intervals. Excess RNase A was then added to the mixture to ensure that […] substrate had been cleaved prior to completion of the inhibition assay. Apparent changes in ribonucleolytic activity due to dilution were corrected by comparing values to an assay in which aliquots of buffer were added to the assay. Values of Ki were determined by non-linear least squares regression analysis of data fitted to Equation 1 (Kelemen et al., 1999; Park et al., 2001). ΔF/Δt=(ΔF/Δt)0(Ki/(Ki+[I])) (Eq. 1)
At 0 M NaCl, the enzyme concentration ([E] total) caused a significant depletion in inhibitor concentration, thus the data were fitted to Equation 2, which describes tight-binding inhibition (Henderson, 1972). ΔF/Δt=((ΔF/Δt)0/2[E]total){[(Ki+[I]−[E]total]^2+4Ki[E]total)^1/2−(Ki+[I]−[E]total)} (Eq. 2) In Equations 1 and 2, ( )F/ )t)0 was the ribonucleolytic activity prior to inhibitor addition.

[2] = target: T2, RNase A (Bos taurus, UniProt P61823); settings: similar buffer conditions with 0.10 M NaCl; cited from earlier work
T2 sequence (P61823 27-150): T1 sequence (P61823 27-150)

Row | SMILES | inhibition of RNase A by buffer synthesis byproducts (words) [1] | inhibition of RNase A by buffer synthesis byproducts (words) ([1]; listed as 2-OH ethanesulfonic acid) | Ki [2] [nM] | inhibition of RNase A by buffer synthesis byproducts (words) ([1]; listed as diethanesulfonic acid) | inhibition of RNase A by buffer synthesis byproducts (words) ([1]; listed as vinyl sulfonic acid)
1 | O=S(=O)(O)CCO [2-hydroxyethanesulfonic acid] | Neither of these species was found to be a potent inhibitor | None of these three materials was found, when tested, to exhibit inhibitory activity | – | – | –
2 | Nc1ncnc2c1ncn2[C@@H]1O[C@H](COP(=O)(O)OP(=O)(O)O[C@H]2C[C@H](n3ccc(=O)[nH]c3=O)O[C@@H]2COP(=O)(O)O)[C@@H](OP(=O)(O)O)[C@H]1O [pdUppA-3′-p] | – | – | ~120 | – | –
3 | O=S(=O)(O)CCOCCS(=O)(=O)O [Diethanesulfonic acid ether, diethanesulfonic acid ether] | failed to inhibit RNase A | – | – | None of these three materials was found, when tested, to exhibit inhibitory activity | –
4 | C=CS(=O)(=O)O [vinylsulfonic acid] | Neither of these species was found to be a potent inhibitor | – | – | – | None of these three materials was found, when tested, to exhibit inhibitory activity
